In article PMC7587356, “High-Throughput Screening for Inhibitors of the SARS-CoV-2 Protease Using a FRET-Biosensor” (Molecules, 2020):
Where two headings read alike, the source gives them in different places.

Tests used:
SARS-CoV-2 3CLpro [1] = target: T1, SARS-CoV-2 3CLpro (Severe acute respiratory syndrome coronavirus 2, UniProt P0DTD1); assay: biochemical; type: biochemical; conditions: for reduction in levels of inhibition upon addition of 0.01% Triton X-100: with vs without 0.01% Triton X-100
SARS-CoV-2 3CLpro [2] = target: T1, SARS-CoV-2 3CLpro; assay: biochemical; type: biochemical; conditions: for inhibition at 5 µM: 4 h
[3] = with 0.01% Triton X-100; mean ± SD of triplicate; 4 h, 30 °C; read-out: A) EC50 with Triton X-100
[4] = without Triton X-100; mean ± SD of triplicate; 4 h, 30 °C; read-out: B) EC50 without Triton X-100
[5] = read-out: Replicate_1 (LOPAC screen with protease)
[6] = read-out: Replicate_2 (LOPAC screen with protease)
[7] = read-out: mean (LOPAC screen with protease)
[8] = sheet LOPAC_screen_w_protease, primary screen at 5 µM, mean of two replicates
[9] = sheet LOPAC_screen_w_protease, primary screen at 5 µM, replicate 1
[10] = sheet LOPAC_screen_w_protease, primary screen at 5 µM, replicate 2
[11] = EC50 with Triton X-100 / EC50 without Triton X-100, ratio greater than 2 suggests aggregation-based inhibitor

Row | Compound | EC50 (SARS-CoV-2 3CLpro [1]; [3]) [nM] | EC50 (SARS-CoV-2 3CLpro [1]; [4]) [nM] | Ratio (A/B) (SARS-CoV-2 3CLpro [1]) | other results
1 | Oc1ccc(C2CNCCc3c2cc(O)c(O)c3Cl)cc1 (stereo not shown) [Fenoldopam] | > 20000 | 7190 ± 6080 |  | 
2 | CN1CCc2cc(O)c(O)cc2C(c2ccccc2)C1 (stereo not shown) [SKF 75670] | 17800 ± 8360 | > 20000 |  | 
3 | O=C1O/C(=C/Br)CCC1c1cccc2ccccc12 (stereo not shown) [Bromoenol lactone, reference compound] | 817 ± 121 | 757 ± 73 | 1.1 | inhibition at 5 µM (SARS-CoV-2 3CLpro [2]; [5]): 100%; inhibition at 5 µM (SARS-CoV-2 3CLpro [2]; [6]): 99.7%; inhibition at 5 µM (SARS-CoV-2 3CLpro [2]; [7]): 99.9%
4 | N#CC(C#N)=C(N)/C(C#N)=C/c1cc(O)c(O)c(O)c1 [Tyrphostin 51, reference compound] | 19000 ± 14200 | 9120 ± 5300 | 2.1 | inhibition at 5 µM (SARS-CoV-2 3CLpro [2]; [5]): 28%; inhibition at 5 µM (SARS-CoV-2 3CLpro [2]; [6]): 28.9%; inhibition at 5 µM (SARS-CoV-2 3CLpro [2]; [7]): 28.5%
5 | Cc1ccc(S(=O)(=O)N[C@@H](Cc2ccccc2)C(=O)CCl)cc1 [TPCK, Tosyl-L-Phe chloromethyl ketone] | 1740 ± 34 | 985 ± 175 | 1.8 | EC50 (SARS-CoV-2 3CLpro [1]; with 0.01% Triton X-100, read-out: EC50): 1740 nM
6 | O=Nc1ccc2oc(=O)ccc2c1 [6-Nitroso-1,2-benzopyrone, reference compound] | 882 ± 110 | 559 ± 123 | 1.6 | mean (LOPAC screen with protease) (SARS-CoV-2 3CLpro [2]; [8]): 91.133; Replicate_1 (LOPAC screen with protease) (SARS-CoV-2 3CLpro [2]; [9]): 92.4944; Replicate_2 (LOPAC screen with protease) (SARS-CoV-2 3CLpro [2]; [10]): 89.7716
7 | Oc1cc2c(cc1O)[C@H]1c3ccccc3CN[C@@H]1CC2 (racemic) [Dihydrexidine] | 705 ± 153 | 622 ± 72 | 1.1 | 
8 | C[n+]1cc2c3c(ccc2c2ccc4cc5c(cc4c21)OCO5)OCO3 [Sanguinarine] | 1780 ± 497 | 2240 ± 586 | 0.8 | 
9 | Br.CCCN1CCc2cc(O)cc3c2[C@H]1Cc1ccc(O)c(O)c1-3 [R(−)-2-OH-NPA, R(−)-2,10,11-Trihydroxy-N-propylnoraporphine] | 746 ± 91 | 715 ± 133 |  | Ratio (A/B) (SARS-CoV-2 3CLpro [1]; [11]): 1.0
10 | CC(C)N(CCC(=O)c1ccc2ccccc2c1)Cc1ccccc1 [ZM 39923] | 302 ± 38 | 289 ± 55 | 1.0 | 
11 | C=CCN1CCc2cccc3c2[C@H]1Cc1ccc(O)c(O)c1-3 [R(−)-N-Allylnorapomorphine] | 346 ± 80 | 379 ± 83 |  | Ratio (A/B) (SARS-CoV-2 3CLpro [1]; [11]): 0.9
12 | COc1ccc2c(c1)CC[C@@H]1[C@@H]2CC[C@]2(C)[C@@H](NCCCCCCN3C(=O)C=CC3=O)CC[C@@H]12 [U-73122, reference compound] | 694 ± 82 | 350 ± 17 |  | mean (LOPAC screen with protease) (SARS-CoV-2 3CLpro [2]; [8]): 88.5998; Replicate_1 (LOPAC screen with protease) (SARS-CoV-2 3CLpro [2]; [9]): 89.4118; Replicate_2 (LOPAC screen with protease) (SARS-CoV-2 3CLpro [2]; [10]): 87.7878; Ratio (A/B) (SARS-CoV-2 3CLpro [1]; [11]): 2.0
13 | C=CCN1CCc2cc(O)c(O)cc2C(c2ccccc2)C1 (racemic) [N-allyl-(±)-SKF 38393] | 3340 ± 805 | 1650 ± 462 |  | 
14 | Cc1c(OCC(F)(F)F)ccnc1C[S+]([O-])c1nc2ccccc2[nH]1 (stereo not shown) [Lansoprazole, reference compound] |  |  | 3.9 | mean (LOPAC screen with protease) (SARS-CoV-2 3CLpro [2]; [8]): 41.5106; Replicate_1 (LOPAC screen with protease) (SARS-CoV-2 3CLpro [2]; [9]): 48.0924; Replicate_2 (LOPAC screen with protease) (SARS-CoV-2 3CLpro [2]; [10]): 34.9288; EC50 (SARS-CoV-2 3CLpro [1]; A) EC50 with Triton X-100): 5720 ± 865 nM; EC50 (SARS-CoV-2 3CLpro [1]; B) EC50 without Triton X-100): 1460 ± 398 nM
15 | O=c1oc(Cl)c(Cl)c2ccccc12 [3,4-Dichloroisocoumarin, reference compound] | 8700 ± 2720 | 5380 ± 612 | 1.6 | inhibition at 5 µM (SARS-CoV-2 3CLpro [2]; sheet LOPAC_screen_w_protease, primary screen at 5 µM, mean of two replicates, read-out: mean (LOPAC screen with protease)): 30.4%; inhibition at 5 µM (SARS-CoV-2 3CLpro [2]; sheet LOPAC_screen_w_protease, primary screen at 5 µM, replicate 1, read-out: Replicate_1 (LOPAC screen with protease)): 30.8%; inhibition at 5 µM (SARS-CoV-2 3CLpro [2]; sheet LOPAC_screen_w_protease, primary screen at 5 µM, replicate 2, read-out: Replicate_2 (LOPAC screen with protease)): 30%
16 | R(−)-Propylnorapomorphine [R(−)-NPA] | 426 ± 17 | 426 ± 77 | 1.0 | 
17 | CCN(CC)C(=S)SSC(=S)N(CC)CC [Disulfiram] |  |  |  | reduction in levels of inhibition upon addition of 0.01% Triton X-100 (SARS-CoV-2 3CLpro [1]): > 2 fold
18 | Oc1ccc(Cn2cc[nH]c2=S)cc1 [1-Hbit] | 7080 ± 5150 | > 20000 |  | 
19 | NC(Cc1cc(O)c(O)cc1O)C(=O)O (racemic) [6-Hydroxy-dl-DOPA, reference compound] | 1320 ± 118 | 652 ± 259 |  | mean (LOPAC screen with protease) (SARS-CoV-2 3CLpro [2]; [8]): 66.3118; Replicate_1 (LOPAC screen with protease) (SARS-CoV-2 3CLpro [2]; [9]): 69.7112; Replicate_2 (LOPAC screen with protease) (SARS-CoV-2 3CLpro [2]; [10]): 62.9123; Ratio (A/B) (SARS-CoV-2 3CLpro [1]; [11]): 2.0
20 | CN(N=O)c1ccc(O)c(O)c1 [Me-3,4-dephostatin, reference compound] | 3780 ± 867 | 1820 ± 925 | 2.1 | mean (LOPAC screen with protease) (SARS-CoV-2 3CLpro [2]; [8]): 27.3002; Replicate_1 (LOPAC screen with protease) (SARS-CoV-2 3CLpro [2]; [9]): 29.2005; Replicate_2 (LOPAC screen with protease) (SARS-CoV-2 3CLpro [2]; [10]): 25.3998
21 | CC(Cc1ccc(O)c(O)c1)C(C)Cc1ccc(O)c(O)c1 (stereo not shown) [Nordihydroguaiaretic acid] | 270 ± 58 | 214 ± 65 | 1.3 | 
22 | O=C(O)/C=C/c1ccc(O)c(O)c1 [Caffeic Acid] |  |  |  | EC50 (SARS-CoV-2 3CLpro [1]; A) EC50 with Triton X-100): > 20000 nM; EC50 (SARS-CoV-2 3CLpro [1]; B) EC50 without Triton X-100): 5390 ± 1230 nM
23 | CN=c1nc(-c2ccccc2)n(-c2ccccc2)s1 [SCH-202676] | 274 ± 73 | 41 ± 8 |  | Ratio (A/B) (SARS-CoV-2 3CLpro [1]; [11]): 6.7; reduction in levels of inhibition upon addition of 0.01% Triton X-100 (SARS-CoV-2 3CLpro [1]): > 2 fold
